Assay results: paper PMC6544370 (Nature, 2019)

Biological target: Lp-CdnE02 (CD-NTase057) (Legionella pneumophila, UniProt P0DSP3)
Sequence (P0DSP3 whole entry, looked up): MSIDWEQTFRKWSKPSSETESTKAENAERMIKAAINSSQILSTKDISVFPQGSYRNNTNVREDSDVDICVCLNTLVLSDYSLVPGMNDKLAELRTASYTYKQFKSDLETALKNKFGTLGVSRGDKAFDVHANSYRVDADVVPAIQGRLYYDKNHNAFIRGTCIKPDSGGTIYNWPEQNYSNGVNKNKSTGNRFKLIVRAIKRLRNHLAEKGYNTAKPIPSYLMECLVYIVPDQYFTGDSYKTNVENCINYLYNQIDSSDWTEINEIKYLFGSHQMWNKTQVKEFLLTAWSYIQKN

O=c1ccn([C@@H]2O[C@H](COP(=O)(O)OP(=O)(O)OP(=O)(O)O)[C@@H](O)[C@H]2O)c(=O)[nH]1 [UTP]
radiolabelled NTP, TLC and mass spectrometry: Lp-CdnE02 synthesized predominantly c-di-UMP
